Test results reported in US20160081338A1, “PLANT GROWTH ACCELERATOR” (Nippon Soda Co., Ltd., priority 2012, published 2016).

How the values were obtained:
[1] = system: rice seeds (variety: Koshihikari); assay: Test on acceleration of rice root growth and effect of growing vigourous seedlings; type: in vivo; conditions: for Seminal Root Length: paper filter, 25° C.
Method: A paper filter was spread in a plastic cup and impregnated with 10 ml of each of the chemical solutions prepared in Example 1 or Comparative Example 1. In non-treatment, water was used in place of the chemical solutions. In treatment plots, 1 replication was provided for each concentration; in the non-treatment plots, 2 replications were provided. Ten rice seeds (variety: Koshihikari) were sown on each plot of the paper filter and cultivated in a growth chamber at 25° C., and the length of roots was measured after 5 and 7 days. The average of measured values excluding the maximum and minimum values was calculated. The ratio (%) of the average value in each treatment plot to the average value in the non-treatment plots was calculated.

[2] = system: cucumber (Variety:Sagamihanjiro-fushinari); assay: Test on acceleration of growth of aboveground/underground part of cucumber and effect of growing vigourous seedlings; type: in vivo; conditions: after 7 days, dilution 708, active ingredient 250 ppm
Method: Seedling-raising culture soil for gardening was placed in a 12 -cm-by-20 -cm plastic pot 10 cm in depth, and 5 seeds of cucumber (Variety:Sagamihanjiro-fushinari) were sown in the soil. Thereinto was uniformly irrigated 500 ml of each chemical solution prepared in Example 1 or Comparative Example 1. Water was used in place of each chemical solution in the non-treatment plots. Each plot has 3 replications. The above-ground and underground parts of the seedlings germinated and grown after 7 days were measured for length. The ratio (%) of the average value in each treatment plot to the average value in the non-treatment plot was calculated.

[3] = After 5 Days, dilution 708, active ingredient 250 ppm
[4] = After 5 Days, dilution 2832, active ingredient 62.5 ppm
[5] = After 5 Days, dilution 11328, active ingredient 15.6 ppm
[6] = After 7 Days, dilution 2832, active ingredient 62.5 ppm
[7] = After 7 Days, dilution 11328, active ingredient 15.6 ppm

**Q.** Which results are given for `Cc1c(Br)c2ccc(F)cc2n1S(=O)(=O)c1ncn(S(=O)(=O)N(C)C)n1` [Amisulbrom, 3-(3-bromo-6-fluoro-2-methylindol-1-ylsulfonyl)-N,N-dimethyl-1H-1,2,4-triazole-1-sulfonamide]?
**A.** Seminal Root Length To Non-treatment [1, 3]: 120%; Seminal Root Length [1, 3]: 2.46 cm; Seminal Root Length To Non-treatment [1, 4]: 139%; Seminal Root Length [1, 4]: 2.85 cm; Seminal Root Length To Non-treatment [1, 5]: 129%; Seminal Root Length [1, 5]: 2.65 cm; Seminal Root Length ([1]; After 7 Days, dilution 708, active ingredient 250 ppm): 2.91 cm; Seminal Root Length To Non-treatment [1, 6]: 176%; Seminal Root Length [1, 6]: 4.04 cm; Seminal Root Length To Non-treatment [1, 7]: 154%; Seminal Root Length [1, 7]: 3.53 cm; Seminal Root Length To Non-treatment ([1]; after 7 days, dilution 708, active ingredient 250 ppm): 127%; Above-ground Part Length To Non-treatment [2]: 108%; Under-ground Part Length To Non-treatment [2]: 117%; Above-ground Part Length ([2]; 500 ml irrigated into soil): 2.2 cm; Under-ground Part Length ([2]; 500 ml irrigated into soil): 4.3 cm
